# Reference: patent US20230250433A1, “METHODS AND COMPOSITIONS FOR TREATMENT OF APC-DEFICIENT CANCER” (Board of Regents, The University of Texas System, priority 2020, published 2023)
# Key:
# Axl = target: T1, Axl (Mus musculus, UniProt Q00993); assay: Immunoblots for Axl and phospho-Axl; type: cell-based; conditions: APC-WT and APC-KO MC38 cells; R428 0.2 μM 24 h; rmGAS6 24 h
# T1 construct: immunoblots for Axl and phospho-Axl in APC-WT and APC-KO MC38 cells after R428 treatment (0.2 μM, 24 h); endogenous in cells; host or cells: MC38 mouse colorectal cancer cells, APC-WT and isogenic APC-KO
# T1 sequence (Q00993 19-888): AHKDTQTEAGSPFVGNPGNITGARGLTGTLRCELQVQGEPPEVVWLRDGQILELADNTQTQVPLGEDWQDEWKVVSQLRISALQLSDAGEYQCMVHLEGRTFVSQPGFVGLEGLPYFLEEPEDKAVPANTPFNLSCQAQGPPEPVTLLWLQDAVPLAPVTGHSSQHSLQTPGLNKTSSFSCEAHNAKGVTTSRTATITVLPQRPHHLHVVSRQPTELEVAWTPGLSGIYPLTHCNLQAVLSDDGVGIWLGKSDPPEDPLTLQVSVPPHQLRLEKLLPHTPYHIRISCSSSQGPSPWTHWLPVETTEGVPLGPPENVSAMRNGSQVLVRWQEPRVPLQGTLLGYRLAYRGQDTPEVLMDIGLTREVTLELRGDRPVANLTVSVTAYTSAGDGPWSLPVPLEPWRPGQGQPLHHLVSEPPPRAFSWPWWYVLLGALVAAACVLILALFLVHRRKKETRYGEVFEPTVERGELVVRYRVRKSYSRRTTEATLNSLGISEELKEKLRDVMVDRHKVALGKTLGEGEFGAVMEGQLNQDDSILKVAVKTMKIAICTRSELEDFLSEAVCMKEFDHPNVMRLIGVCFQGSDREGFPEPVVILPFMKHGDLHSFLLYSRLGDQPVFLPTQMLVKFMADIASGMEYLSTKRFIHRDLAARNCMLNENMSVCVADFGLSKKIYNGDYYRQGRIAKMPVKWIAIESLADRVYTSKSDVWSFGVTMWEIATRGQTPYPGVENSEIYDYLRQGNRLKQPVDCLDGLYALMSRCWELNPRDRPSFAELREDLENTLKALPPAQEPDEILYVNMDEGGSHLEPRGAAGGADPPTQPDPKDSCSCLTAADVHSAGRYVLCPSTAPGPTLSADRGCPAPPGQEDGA
# Description: (§1) The red box indicates Axl. […] Six replicates per group. two-tailed t-test. *P<0.05. […] Epithelial cells are stained with EpCam and indicated by GFP. X63 magnification. […] Total flux measurement of at the end point. **P<0.01. two-tailed t-test. […] Total flux measurement of tumors was done at the end point. **P<0.01. two-tailed t-test.
# (§2) Gas6 is a ligand of Axl and is secreted mainly by tumor-associated macrophages in the TME (Loges et al., 2010), raising the possibility that macrophage-derived Gas6 might activate Axl to support the growth of APC-deficient cancer cells.
# Cell lysates were prepared with RIPA lysis buffer (Roche) with protease inhibitor […] Immunoblotting was performed following standard protocol. Antibodies were purchased from the indicated companies.
# [1] = test system: LS180 and HT-29 cell lines; assay: Colony formation assay with Gas6 and R428; type: cell-based, human; conditions: Gas6 25 ng with R428 1 μM, 36 hr
# Description: as §1, §2
# Colorectal cancer cell proliferation in vitro was assayed through colony formation. 1×10^3 cells were seeded in each well of 6-well plates and cultured for 5-7 days. At the end point, cells were fixed and stained with 0.5% crystal violet in 25% methanol for 1 hr. These studies were performed in triplicate.
# [2] = test system: APC-WT and APC-KO MC38 cells; assay: Cell viability assay with R428; type: cell-based, mouse; conditions: R428 0.5 μM, 48 h
# Description: as §1, §2
# Raw264.7 = assay: Transwell migration assay of macrophages in conditioned media; type: cell-based, mouse; conditions: recombinant CXCL5 protein 50 ng, 36 hr
# Protocol: Two-way ANOVA analysis. […] Dox food was applied at day 5 post-orthotopic injection to induce TDO2 knockdown in vivo. n=4 per group. n.s.P>0.05, *P<0.05, […], ****P<0.0001. two-tailed t-test. […] FIGS. 12D and 12E show quantification of macrophages (F4/80+; FIG. 12D) and M2 macrophages (CD206+; FIG. 12E) in tumors shown in FIG. 12C. CyTOF data analyzed by FlowJo. Data represent mean±s.d., n=3 per group. *P<0.05, **P<0.01. two-tailed t-test. […] Recombinant CXCL5 protein (50 ng) and SX-682 (1 μM) were added to harvested condition media for 36 hr. Scale bar, 100 μm. n=3 biological replicates. Quantification is shown in lower panel. n.s. P>0.05, ***P<0.001, ****P<0.0001. two-tailed t-test. […] Clondronate liposomes or control encapsome liposomes were given intraperitoneally (100 μl) at day 2 post-orthotopic injection and three times a week. […]
# Macrophages (1×10^4 for Raw264.7 and BMDM) were suspended in serum-free culture medium and seeded into 24-well Transwell inserts ([…]). […] After 24 h, the migrated macrophages were fixed and stained with crystal violet (0.05%, sigma), and then counted as cells per field of view under microscope or measured as OD590 nm (expressed as migration index) after crystal violet was dissolved.
# Raw264.7 cells = assay: RT-qPCR of M2 macrophage signature genes in Raw264.7 cells with conditioned media; type: cell-based, mouse; conditions: conditioned media from APC-KO MC38 cells, 30 h
# Protocol: (§3) Scale bars, 50μm. […] Scale bars, 100 μm. […] (isTDO2 and isTDO2/shCXCL5 #2 groups, n=7, isTDO2/shCXCL5 #3, n=8). ****P<0.0001. two-tailed t-test. […] (shControl and shCXCL5 #2 groups, n=7, shCXCL5 #3, n=8). ****P<0.0001. two-tailed t-test.
# (§4) RNA was isolated from cells using Trizol (Invitrogen) following the manufacturer's instructions. RNA (200-500 ng) was first treated with RNase-free DNase I using the DNA-free kit (Ambion) to remove all genomic DNA, and then reverse-transcribed into cDNA using an ABI High Capacity cDNA RT Kit (Invitrogen). The cDNA was analyzed using real-time quantitative PCR (SYBR Green, Invitrogen) with an Applied Biosystems 7900 Sequence Detection System. Each reaction was performed in triplicate. The expression of each gene was normalized by that of mouse Actin or human GAPDH.
# BMDM [3] = assay: RT-qPCR of M2 macrophage signature genes in BMDM; type: cell-based, mouse; conditions: CXCL5 50 ng, Kyn 1 mM, 24 hr
# Protocol: as §3, §4
# BMDM [4] = assay: RT-qPCR analysis of Gas6 expression in BMDM; type: cell-based, mouse; conditions: Kyn 1 mM, CXCL5 50 ng, Gas6 25 ng, 24 hr
# Protocol: as §1
# (§5) To evaluate whether secreted factors from cancer cells might upregulate Gas6 expression in macrophages, BMDMs were incubated with conditioned media from MC38 cell lines. […] (FIG. 15H). Finally, to validate the roles of Gas6 in promoting tumor growth in vivo, CT26 cell lines and two independent Raw 264.7 shGas6 cell lines were co-injected into syngeneic Balb/CJ mice (FIG. 15I).
# as §4
# CT26 = assay: Orthotopic co-injection of CT26 cells and Raw264.7 macrophages, tumor growth; type: in vivo, mouse; conditions: Raw264.7 pre-treated with 100 ng of CXCL5 for 48 h before injection; BalB/CJ mice
# Protocol: as §1, §5
# Mice were grouped by 5 animals in large plastic cages and were maintained under pathogen-free conditions. All animal studies were performed with the approval of MD Anderson Cancer Center's Institutional Animal Care and Use Committee (IACUC). NSG (NOD.Cg-Prkdc^scid Il2rg^tm1Wjl/SzJ), C57BL/J6J, and BALB/cJ mice were purchased from Jackson laboratory (Stock No: 005557, 000664, 000651). Colorectal orthotopic xenograft tumor models were established by following protocol (Tseng et al., 2007, JoVE).
Axl phosphorylation (Axl),Molecule,effect on Gas6-promoted cancer cell growth [1],sensitivity of APC-deficient vs APC-intact MC38 cells [2],macrophage recruitment with CM from APC-KO TDO2 depleted MC38 cells (Raw264.7),M2 macrophage markers decreased by TDO2 knockdown (Raw264.7 cells),M2 macrophage markers (BMDM [3]),Gas6 expression (BMDM [4]),growth of CT26 tumors co-injected with pre-treated macrophages (CT26)
reduce Axl phosphorylation,Nc1nc(Nc2ccc3c(c2)CCC(N2CCCC2)CC3)nn1-c1cc2c(nn1)-c1ccccc1CCC2 (centres unmarked) [R428],reversed by R428 treatment,increased sensitivity,,,,,
,"CXCL5: recombinant CXCL5 protein, cytokine",,,rescue of macrophage recruitment,rescued by CXCL5 supplementation,M2 macrophage markers increased,increased Gas6 expression,promoted the growth of CT26 significantly
